ChEMBL document CHEMBL1125514, “Quantitative structure-activity relationships of N2-phenylguanines as inhibitors of herpes simplex virus thymidine kinases” (J Med Chem, 1992)

Legend:
Thymidine kinase [1] = biological target: T1, Thymidine kinase (Human herpesvirus 1 (strain SC16) (HHV-1) (Human herpes simplex virus1), UniProt P06479); assay: Inhibitory activity against HSV-1 thymidine kinase isolated from HeLa cells; format: cell-free; settings: for IC50: read-out: Log 1/IC50 (converted)
T1 sequence (P06479 whole entry): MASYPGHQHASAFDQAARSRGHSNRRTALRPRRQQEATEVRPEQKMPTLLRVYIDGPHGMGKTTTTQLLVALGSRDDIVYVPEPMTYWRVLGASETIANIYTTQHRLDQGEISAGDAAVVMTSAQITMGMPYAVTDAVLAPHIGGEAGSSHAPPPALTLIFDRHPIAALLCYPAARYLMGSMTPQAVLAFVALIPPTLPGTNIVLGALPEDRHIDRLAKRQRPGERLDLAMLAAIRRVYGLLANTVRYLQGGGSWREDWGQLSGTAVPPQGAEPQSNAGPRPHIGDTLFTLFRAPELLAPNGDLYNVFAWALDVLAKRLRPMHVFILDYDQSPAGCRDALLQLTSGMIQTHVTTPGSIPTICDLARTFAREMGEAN

Thymidine kinase [2] = biological target: T2, Thymidine kinase (Human herpesvirus 2, UniProt Q6L709); assay: Inhibitory activity against HSV-2 thymidine kinase isolated from HeLa cells; format: cell-free; settings: read-out: Log 1/IC50 (converted)
T2 sequence (Q6L709 whole entry): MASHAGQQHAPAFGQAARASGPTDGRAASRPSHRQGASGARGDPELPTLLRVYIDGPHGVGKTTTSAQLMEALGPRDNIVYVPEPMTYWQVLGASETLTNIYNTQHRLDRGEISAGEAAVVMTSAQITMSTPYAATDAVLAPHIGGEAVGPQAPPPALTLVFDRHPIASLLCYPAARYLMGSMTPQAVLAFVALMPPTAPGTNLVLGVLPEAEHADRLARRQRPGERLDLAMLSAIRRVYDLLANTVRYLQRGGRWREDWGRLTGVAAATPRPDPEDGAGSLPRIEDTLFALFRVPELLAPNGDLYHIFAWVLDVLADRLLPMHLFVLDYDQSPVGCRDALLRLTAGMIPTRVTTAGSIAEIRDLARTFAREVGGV

SMILES	IC50 (Thymidine kinase [1])	IC50 (Thymidine kinase [2])	Log 1/IC50 (Thymidine kinase [1]; hela)
Oc1[nH]c(Nc2cccc(CCl)c2)nc2ncnc1-2	1.41 µM	1.35 µM	
Oc1[nH]c(Nc2ccc(Cl)cc2)nc2ncnc1-2	100 µM	50.1 µM	
CCCc1ccc(Nc2nc(O)c3[nH]cnc3n2)cc1	30.2 µM	46.8 µM	
NCc1cccc(Nc2nc(O)c3[nH]cnc3n2)c1	30.2 µM	20 µM	
[N-]=[N+]=NCc1cccc(Nc2nc3ncnc-3c(O)[nH]2)c1	0.794 µM	1.51 µM	
Oc1[nH]c(Nc2cccc(CBr)c2)nc2ncnc1-2	1 µM	1.2 µM	
Oc1[nH]c(Nc2cccc(I)c2)nc2ncnc1-2	1.1 µM	1.1 µM	
CC(C)c1ccc(Nc2nc(O)c3[nH]cnc3n2)cc1	200 µM	100 µM	
CCCCc1ccc(Nc2nc(O)c3[nH]cnc3n2)cc1		50.1 µM	4.3
O=c1nc(Nc2cccc(CO)c2)[nH]c2nc[nH]c12	25.1 µM	20 µM	
Oc1[nH]c(Nc2ccc(F)c(Cl)c2)nc2ncnc1-2	7.94 µM	2.51 µM	
Oc1[nH]c(Nc2ccc(F)cc2)nc2ncnc1-2	302 µM	257 µM	
O=c1[nH]c(Nc2ccc(F)c(F)c2)nc2nc[nH]c12	50.1 µM	2.19 µM	
Oc1[nH]c(Nc2ccc(Cl)c(C(F)(F)F)c2)nc2ncnc1-2	20 µM	5.01 µM	
CCCCc1ccc(Nc2nc(O)c3[nH]cnc3n2)cc1C	39.8 µM		
CCCCCc1ccc(Nc2nc(O)c3[nH]cnc3n2)cc1	501 µM	251 µM	
CCc1cccc(Nc2nc3nc[nH]c3c(=O)[nH]2)c1	2.51 µM	3.98 µM	
Cc1ccc(Nc2nc3nc[nH]c3c(=O)[nH]2)cc1	50.1 µM	6.03 µM	
O=c1[nH]c(Nc2cccc(C(F)(F)F)c2)nc2nc[nH]c12	0.151 µM	0.1 µM	
N#Cc1cccc(Nc2nc3ncnc-3c(O)[nH]2)c1	5.01 µM	0.398 µM	
Oc1[nH]c(Nc2cccc(Br)c2)nc2ncnc1-2	1.51 µM	0.603 µM	
Oc1[nH]c(Nc2ccc(I)cc2)nc2ncnc1-2	39.8 µM	8.91 µM	
Oc1[nH]c(Nc2cccc(Cl)c2)nc2ncnc1-2	1.51 µM	0.347 µM	
Oc1[nH]c(Nc2ccc(Br)cc2)nc2ncnc1-2	1 µM	0.603 µM	
O=c1[nH]c(Nc2ccc(O)cc2)nc2nc[nH]c12	141 µM	20 µM	
Oc1[nH]c(Nc2ccc3ccccc3c2)nc2ncnc1-2	39.8 µM	10 µM	
Oc1[nH]c(Nc2ccc(C(F)(F)F)cc2)nc2ncnc1-2	30.2 µM	39.8 µM	
Oc1[nH]c(Nc2ccc(Br)c(Br)c2)nc2ncnc1-2	3.02 µM	1.29 µM	
Cc1ccc(Nc2nc(O)c3[nH]cnc3n2)cc1CO	269 µM	200 µM	
